These results are taken from article PMC7488365 (Acta Pharmaceutica Sinica. B, 2019).

Assay [1] deals with T1, USP28 (Homo sapiens, UniProt Q96RU2).
T1 sequence (Q96RU2 1-700): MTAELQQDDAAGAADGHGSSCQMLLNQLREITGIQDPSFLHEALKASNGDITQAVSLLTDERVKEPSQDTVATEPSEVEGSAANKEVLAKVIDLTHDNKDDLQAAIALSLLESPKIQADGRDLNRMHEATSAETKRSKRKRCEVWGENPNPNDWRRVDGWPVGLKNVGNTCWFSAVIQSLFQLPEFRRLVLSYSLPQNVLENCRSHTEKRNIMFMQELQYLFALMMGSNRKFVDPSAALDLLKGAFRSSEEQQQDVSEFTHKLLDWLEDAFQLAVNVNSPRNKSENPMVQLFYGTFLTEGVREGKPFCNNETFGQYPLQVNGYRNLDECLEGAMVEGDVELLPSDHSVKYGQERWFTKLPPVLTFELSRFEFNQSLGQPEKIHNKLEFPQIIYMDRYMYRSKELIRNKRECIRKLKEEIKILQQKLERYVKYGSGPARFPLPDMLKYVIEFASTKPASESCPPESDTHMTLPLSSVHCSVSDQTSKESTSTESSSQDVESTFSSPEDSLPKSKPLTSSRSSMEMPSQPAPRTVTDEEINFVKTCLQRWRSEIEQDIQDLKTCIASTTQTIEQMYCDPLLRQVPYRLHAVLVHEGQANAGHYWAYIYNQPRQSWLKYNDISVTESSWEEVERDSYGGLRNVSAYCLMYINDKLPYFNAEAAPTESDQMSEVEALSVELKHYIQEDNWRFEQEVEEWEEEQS
Nature of the assay: biochemical. Format: biochemical. The conditions noted are these: for inhibition at 12.5 µM: read-out: Inhibition rate at 12.5 μmol/L (%); for Inhibition rate at 12.5 μmol/L (%): 12.5 μmol/L compound, Ub-AMC substrate.

Assay [2] deals with T1, USP28. Nature of the assay: Bio-layer interferometry. Format: binding.
In assay [3] the test system is MGC-803 cells. Nature of the assay: cells. Conditions: Homo sapiens, MGC-803, 72 h, read-out: IC50 cell viability MGC-803.
For assay [4], the system named is GES-1 cells. Nature of the assay: cells. The conditions noted are these: Homo sapiens, GES1, 72 h, read-out: IC50 cell viability GES-1.
Assay [5] concerns HGC-27 cells. Nature of the assay: MTT cell viability assay, HGC-27. Conditions: Homo sapiens, HGC-27, 72 h, read-out: IC50 cell viability HGC-27.
Assay [6] has as its system MKN45 cells. Nature of the assay: cells. The conditions noted are these: Homo sapiens, MKN-45, 72 h, read-out: IC50 cell viability MKN45.
In assay [7] the test system is USP28, LSD1 and total c-Myc in HGC-27 cells. Nature of the assay: Western blotting of USP28, LSD1 and total c-Myc. The format is cell-based, human. The conditions noted are these: HGC-27, 3 h, even at 40 μmol/L. (Immunoblotting shows a protein as a band on a membrane.)
In assay [8] the target is T1, USP28. The conditions noted are these: read-out: EC50 USP28 inhibition; cited from earlier work.

Read-outs that look alike come from different tables or passages of the source.

In general, IC50 refers to the concentration at which inhibition is half-maximal. Regarding `C#CCSc1nc(NCCN)c2nnn(Cc3ccc(Cl)cc3)c2n1` [Compound 24, N^1-(3-(4-Chlorobenzyl)-5-(prop-2-yn-1-ylthio)-3H-[1,2,3]triazolo[4,5-d]pyrimidin-7-yl)ethane-1,2-diamine], in assay [1], it took 14.5 ± 0.19 µM to reach half-maximal inhibition (IC50) and the inhibition at 12.5 µM turned out to be 59.9%.

Consider `CCCSc1nc(NCc2ccco2)c2nnn(Cc3ccccc3)c2n1` [Compound 5, 3-Benzyl-N-(furan-2-ylmethyl)-5-(propylthio)-3H-[1,2,3]triazolo[4,5-d]pyrimidin-7-amine], for which the concentration for half-maximal inhibition (IC50) in assay [1] (read-out: IC50 against USP28, Ub-AMC 100 nmol/L, USP28 62.5 nmol/L) came out at 14.2 ± 0.19 µM. The inhibition at 12.5 µM in assay [1] was found to be 45.6%.

By Kd is commonly meant the concentration at which binding is half-saturated. As for `CCCSc1nc(NCCN)c2nnn(Cc3ccccc3)c2n1` [Compound 8, N^1-(3-benzyl-5-(propylthio)-3H-[1,2,3]triazolo[4,5-d]pyrimidin-7-yl)ethane-1,2-diamine], in assay [1], half-maximal inhibition (IC50) was put at 4.34 ± 0.3 µM and the inhibition at 12.5 µM came out at 80%. The compound further registered a Kd in assay [2] of 0.09 µM.

For the compound `NCCNc1nc(SCc2ccccc2)nc2c1nnn2Cc1ccc(Cl)cc1` [Compound 22, N^1-(5-(Benzylthio)-3-(4-chlorobenzyl)-3H-[1,2,3]triazolo[4,5-d]pyrimidin-7-yl)ethane-1,2-diamine], in assay [1], 23.3 ± 0.59 µM corresponded to half-maximal inhibition (IC50) and the inhibition at 12.5 µM came to 45%.

For `CCCSc1nc(NCCCN2CCOCC2)c2nnn(Cc3ccccc3)c2n1` [Compound 4, 3-Benzyl-N-(3-morpholinopropyl)-5-(propylthio)-3H-[1,2,3]triazolo[4,5-d]pyrimidin-7-amine], in assay [1], the IC50 is greater than 100 µM and the “Inhibition rate at 12.5 μmol/L (%)” value was “Inactive”.

For `CCCSc1nc(NCCN)c2nnn(CCO)c2n1` [Compound 12, 2-(7-((2-Aminoethyl)amino)-5-(propylthio)-3H-[1,2,3]triazolo[4,5-d]pyrimidin-3-yl)ethan-1-ol], the IC50 was greater than 50 µM in assay [3]; greater than 100 µM in assay [4]; greater than 100 µM in assay [5]; greater than 50 µM in assay [6]; greater than 100 µM in assay [1]. In assay [1], the “Inhibition rate at 12.5 μmol/L (%)” value was “Inactive”. Besides, the “Binding to USP28 (in words)” value in assay [2] (BLI) was “failed to bind”. Also, the “protein levels of USP28, LSD1 and total c-Myc” value in assay [7] is given as “remained unchanged”.

As to `CCCSc1nc(NCCN)c2nnn(Cc3ccc(O)cc3)c2n1` [Compound 16, 4-((7-((2-Aminoethyl)amino)-5-(propylthio)-3H-[1,2,3]triazolo[4,5-d]pyrimidin-3-yl)methyl)phenol], in assay [1], the midpoint of inhibition, the IC50, lay at 28.7 ± 1.36 µM and the inhibition at 12.5 µM stood at 36.2%.

With `CCCSc1nc(NCc2cccnc2)c2nnn(Cc3ccccc3)c2n1` [Compound 6, 3-Benzyl-5-(propylthio)-N-(pyridin-3-ylmethyl)-3H-[1,2,3]triazolo[4,5-d]pyrimidin-7-amine], in assay [1], the half-maximal inhibitory concentration (IC50) was 20.5 ± 1.45 µM and the inhibition at 12.5 µM was 23.1%.

Consider `CCCSc1nc(N2CCNCC2)c2nnn(Cc3ccccc3)c2n1` [Compound 7, 3-Benzyl-7-(piperazin-1-yl)-5-(propylthio)-3H-[1,2,3]triazolo[4,5-d]pyrimidine], for which, in assay [1], it took 10.2 ± 1.3 µM to reach half-maximal inhibition (IC50) and the inhibition at 12.5 µM amounted to 50%.

For the compound `CCCSc1nc(NCCNC(C)=O)c2nnn(Cc3ccc(Cl)cc3)c2n1` [Compound 20, N-(2-((3-(4-Chlorobenzyl)-5-(propylthio)-3H-[1,2,3]triazolo[4,5-d]pyrimidin-7-yl)amino)ethyl)acetamide], in assay [1], the IC50 is greater than 100 µM and the “Inhibition rate at 12.5 μmol/L (%)” value is listed as “Inactive”.

For the compound `CCCSc1nc(NC2CC2)c2nnn(Cc3ccccc3)c2n1` [Compound 3, 3-Benzyl-N-cyclopropyl-5-(propylthio)-3H-[1,2,3]triazolo[4,5-d]pyrimidin-7-amine], in assay [1], the IC50 was greater than 100 µM and the “Inhibition rate at 12.5 μmol/L (%)” value was “Inactive”.

For `CCCSc1nc(NCCNC(=O)OC(C)(C)C)c2nnn(Cc3ccccc3)c2n1` [Compound 9, Tert-butyl(2-((3-benzyl-5-(propylthio)-3H-[1,2,3]triazolo[4,5-d]pyrimidin-7-yl)amino)ethyl)carbamate], in assay [1], the IC50 was greater than 100 µM and the “Inhibition rate at 12.5 μmol/L (%)” value is recorded as “Inactive”.

Turning to `CCCSc1nc(NCCN)c2nnn(Cc3ccccc3Cl)c2n1` [Compound 17, N^1-(3-(2-Chlorobenzyl)-5-(propylthio)-3H-[1,2,3]triazolo[4,5-d]pyrimidin-7-yl)ethane-1,2-diamine], in assay [1], half-maximal inhibition (IC50) required 13.21 ± 0.03 µM and the inhibition at 12.5 µM was 56%.

As for `CCCSc1nc(NCCN)c2nnn(CCCc3ccccc3)c2n1` [Compound 14, N^1-(3-(3-Phenylpropyl)-5-(propylthio)-3H-[1,2,3]triazolo[4,5-d]pyrimidin-7-yl)ethane-1,2-diamine], half-maximal inhibition in assay [1] (IC50) was put at 27.6 ± 2.2 µM.

Regarding `CCCSc1nc(NCCN(C)C)c2nnn(Cc3ccccc3)c2n1` [Compound 10, N^1-(3-Benzyl-5-(propylthio)-3H-[1,2,3]triazolo[4,5-d]pyrimidin-7-yl)-N^2,N^2-dimethylethane-1,2-diamine], in assay [1], the 50% inhibitory concentration (IC50) was greater than 100 µM and the “Inhibition rate at 12.5 μmol/L (%)” value is recorded as “Inactive”.

For `NCCNc1ncnc2c1nnn2Cc1ccc(Cl)cc1` [Compound 21, N^1-(3-(4-Chlorobenzyl)-3H-[1,2,3]triazolo[4,5-d]pyrimidin-7-yl)ethane-1,2-diamine], in assay [1], 12.3 ± 0.27 µM corresponded to half-maximal inhibition (IC50) and the inhibition at 12.5 µM came out at 62.2%.

`CCCSc1nc(NCCN)c2nnn(CCc3c[nH]c4ccccc34)c2n1` [Compound 15, N^1-(3-(2-(1H-Indol-3-yl)ethyl)-5-(propylthio)-3H-[1,2,3]triazolo[4,5-d]pyrimidin-7-yl)ethane-1,2-diamine]: in assay [1], the concentration for half-maximal inhibition (IC50) stood at 24.8 ± 0.58 µM and the inhibition at 12.5 µM worked out at 34%.

With `Cc1nc(NCCN)c2nnn(Cc3ccc(Cl)cc3)c2n1` [Compound 23, N^1-(3-(4-Chlorobenzyl)-5-methyl-3H-[1,2,3]triazolo[4,5-d]pyrimidin-7-yl)ethane-1,2-diamine], in assay [1], the IC50 stood at 34.8 ± 1.27 µM and the inhibition at 12.5 µM worked out at 35%.

On to `CCCSc1nc(NCCN)c2nnn(CCNC(=O)OC(C)(C)C)c2n1` [Compound 13, Tert-butyl(2-(7-((2-aminoethyl)amino)-5-(propylthio)-3H-[1,2,3]triazolo[4,5-d]pyrimidin-3-yl)ethyl)carbamate], for which, in assay [1], the IC50 is greater than 100 µM and the “Inhibition rate at 12.5 μmol/L (%)” value is on record as “Inactive”.

For orientation: EC50 means the concentration at which the effect is half-maximal. `N#CSc1cc(SC#N)c(N)nc1N` [PR-619]: the EC50 in assay [8] is roughly 8 µM.

As to `CCCSc1nc(NCCN)c2nnn(Cc3ccc(Br)cc3)c2n1` [Compound 18, N^1-(3-(4-Bromobenzyl)-5-(propylthio)-3H-[1,2,3]triazolo[4,5-d]pyrimidin-7-yl)ethane-1,2-diamine], in assay [1], half-maximal inhibition (IC50) was put at 6 ± 0.05 µM and the inhibition at 12.5 µM was 76.7%.

On to `CCCSc1nc(NCCNC)c2nnn(Cc3ccccc3)c2n1` [Compound 11, N^1-(3-Benzyl-5-(propylthio)-3H-[1,2,3]triazolo[4,5-d]pyrimidin-7-yl)-N^2-methylethane-1,2-diamine], for which, in assay [1], the IC50 amounted to 8.55 ± 0.87 µM and the inhibition at 12.5 µM turned out to be 61.7%.
